In patent US12030904B2 (priority 2020, dated 2024):

Experiments:
SARS-CoV-2 = assay: microbe, parasite or virus in culture; assay type: cell-based; conditions: Severe acute respiratory syndrome coronavirus 2, read-out: SARS EC50
[1] = test system: Recombinant Respiratory Syncytial virus strain A2 containing the firefly luciferase reporter (RSV-Fluc); assay: microbe, parasite or virus in culture; assay type: cell-based; conditions: human respiratory syncytial virus, NHBE, read-out: RSV EC50, Table 4
MT4 cytotoxicity (CC50) = conditions: human, MT4 cells, MT4 CC50, Table 4

CCCCCCCCCCCCCCCCCCOC[C@H](COP(=O)(O)OC[C@H]1O[C@@](C#N)(c2ccc3c(N)ncnn23)[C@H](O)[C@@H]1O)Oc1ccc(C#N)nc1 [Example 78, ((2R,3S,4R,5R)-5-(4-aminopyrrolo[2,1-f][1,2,4]triazin-7-yl)-5-cyano-3,4-dihydroxytetrahydrofuran-2-yl)methyl ((R)-2-((6-cyanopyridin-3-yl)oxy)-3-(octadecyloxy)propyl) hydrogen phosphate]
EC50 (SARS-CoV-2): 33 nM | EC50 [1]: 7 nM | CC50 (MT4 cytotoxicity (CC50)): 133 nM

CCCCCCCCCCCCCCCCCCOC[C@H](COP(=O)(O)OC[C@H]1O[C@@](C#N)(c2ccc3c(N)ncnn23)[C@H](O)[C@@H]1O)n1cnc(C#N)c1 [Example 79, ((2R,3S,4R,5R)-5-(4-aminopyrrolo[2,1-f][1,2,4]triazin-7-yl)-5-cyano-3,4-dihydroxytetrahydrofuran-2-yl)methyl ((R)-2-(4-cyano-1H-imidazol-1-yl)-3-(octadecyloxy)propyl) hydrogen phosphate]
EC50 (SARS-CoV-2): 330 nM | EC50 [1]: 103 nM | CC50 (MT4 cytotoxicity (CC50)): 10100 nM

CCCCCCCCCCCCCCCCCCOC[C@H](COP(=O)(O)OC[C@H]1O[C@@](C#N)(c2ccc3c(N)ncnn23)[C@H](O)[C@@H]1O)Oc1ccc(C#N)nn1 [Example 80, ((2R,3S,4R,5R)-5-(4-aminopyrrolo[2,1-f][1,2,4]triazin-7-yl)-5-cyano-3,4-dihydroxytetrahydrofuran-2-yl)methyl ((R)-2-((6-cyanopyridazin-3-yl)oxy)-3-(octadecyloxy)propyl) hydrogen phosphate]
EC50 (SARS-CoV-2): 54 nM | EC50 [1]: 13 nM | CC50 (MT4 cytotoxicity (CC50)): 344 nM

CCCCCCCCCCCCCCCCCCOC[C@H](COP(=O)(O)OC[C@H]1O[C@@](C#N)(c2ccc3c(N)ncnn23)[C@H](O)[C@@H]1O)n1cc(C#N)nn1 [Example 81, ((2R,3S,4R,5R)-5-(4-aminopyrrolo[2,1-f][1,2,4]triazin-7-yl)-5-cyano-3,4-dihydroxytetrahydrofuran-2-yl)methyl ((R)-2-(4-cyano-1H-1,2,3-triazol-1-yl)-3-(octadecyloxy)propyl) hydrogen phosphate]
EC50 (SARS-CoV-2): 1900 nM | EC50 [1]: 68 nM | CC50 (MT4 cytotoxicity (CC50)): 31100 nM

CCCCCCCCCCCCCCCCCCOC[C@H](COP(=O)(O)OC[C@H]1O[C@@](C#N)(c2ccc3c(N)ncnn23)[C@H](O)[C@@H]1O)Oc1cnc(C#N)nc1 [Example 82, ((2R,3S,4R,5R)-5-(4-aminopyrrolo[2,1-f][1,2,4]triazin-7-yl)-5-cyano-3,4-dihydroxytetrahydrofuran-2-yl)methyl ((R)-2-((2-cyanopyrimidin-5-yl)oxy)-3-(octadecyloxy)propyl) hydrogen phosphate]
EC50 (SARS-CoV-2): 120 nM | EC50 [1]: 10 nM | CC50 (MT4 cytotoxicity (CC50)): 324 nM

CCCCCCCCCCCCCCCCCCOC[C@H](COP(=O)(O)OC[C@H]1O[C@@](C#N)(c2ccc3c(N)ncnn23)[C@H](O)[C@@H]1O)Oc1cnc(C#N)c(OC)c1 [Example 83, ((2R,3S,4R,5R)-5-(4-aminopyrrolo[2,1-f][1,2,4]triazin-7-yl)-5-cyano-3,4-dihydroxytetrahydrofuran-2-yl)methyl ((R)-2-((6-cyano-5-methoxypyridin-3-yl)oxy)-3-(octadecyloxy)propyl) hydrogen phosphate]
EC50 (SARS-CoV-2): 40 nM | EC50 [1]: 5 nM | CC50 (MT4 cytotoxicity (CC50)): 164 nM

CCCCCCCCCCCCCCCCCCOC[C@H](COP(=O)(O)OC[C@H]1O[C@@](C#N)(c2ccc3c(N)ncnn23)[C@H](O)[C@@H]1O)OCc1ccc2ccccc2n1 [Example 92, ((2R,3S,4R,5R)-5-(4-aminopyrrolo[2,1-f][1,2,4]triazin-7-yl)-5-cyano-3,4-dihydroxytetrahydrofuran-2-yl)methyl ((R)-3-(octadecyloxy)-2-(quinolin-2-ylmethoxy)propyl) hydrogen phosphate]
EC50 (SARS-CoV-2): 120 nM | EC50 [1]: 38 nM | CC50 (MT4 cytotoxicity (CC50)): 1760 nM
